PubChem BioAssay AID248 (DTP/NCI, 2004)
Several values for one entry are separate records, joined by “and”; a condition that tells them apart may be missing. Equal entries are not always repeated. Toxic doses and inconclusive results are not listed.

System: L1210 leukemia ip in BDF1 mice, survival T/C
Assay: NCI In Vivo Anticancer Drug Screen. Data for tumor model L1210 Leukemia (intraperitoneal) in B6D2F1 (BDF1) mice
Conditions: endpoint: mean survival time, higher = longer survival
Procedure, shortened: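 Antitumor effect is assessed in tumor-bearing animals. Survival in the compound arm is compared with a vehicle-dosed control arm and expressed as their quotient.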

[1] = dose: 100.0 mg/kg/injection, schedule: Q01DX001 (ip), vehicle: saline with Tween-80
[2] = dose: 100.0 mg/kg/injection, schedule: Q01DX009 (ip), vehicle: saline with Tween-80
[3] = dose: 100.0 mg/kg/injection, schedule: Q04DX002 (ip), vehicle: saline with Tween-80
[4] = dose: 200.0 mg/kg/injection, schedule: Q01DX001 (ip), vehicle: saline with Tween-80
[5] = dose: 200.0 mg/kg/injection, schedule: Q01DX009 (ip), vehicle: saline with Tween-80
[6] = dose: 200.0 mg/kg/injection, schedule: Q04DX002 (ip), vehicle: saline with Tween-80
[7] = dose: 400.0 mg/kg/injection, schedule: Q01DX001 (ip), vehicle: saline with Tween-80
[8] = dose: 400.0 mg/kg/injection, schedule: Q01DX009 (ip), vehicle: saline with Tween-80
[9] = dose: 400.0 mg/kg/injection, schedule: Q04DX002 (ip), vehicle: saline with Tween-80
[10] = dose: 100.0 mg/kg/injection, schedule: Q04DX003 (ip), vehicle: saline with Tween-80
[11] = dose: 200.0 mg/kg/injection, schedule: Q04DX003 (ip), vehicle: saline with Tween-80
[12] = dose: 100.0 mg/kg/injection, schedule: Q01DX001 (ip), vehicle: carboxymethylcellulose (CMC)
[13] = dose: 200.0 mg/kg/injection, schedule: Q01DX001 (ip), vehicle: carboxymethylcellulose (CMC)
[14] = dose: 50.0 mg/kg/injection, schedule: Q01DX001 (ip), vehicle: carboxymethylcellulose (CMC)
[15] = dose: 400.0 mg/kg/injection, schedule: Q01DX001 (ip), vehicle: carboxymethylcellulose (CMC)
[16] = dose: 100.0 mg/kg/injection, schedule: Q01DX009 (ip), vehicle: Klucel (hydroxypropylcellulose) (HPC)
[17] = dose: 200.0 mg/kg/injection, schedule: Q01DX009 (ip), vehicle: Klucel (hydroxypropylcellulose) (HPC)
[18] = dose: 400.0 mg/kg/injection, schedule: Q01DX009 (ip), vehicle: Klucel (hydroxypropylcellulose) (HPC)
[19] = dose: 100.0 mg/kg/injection, schedule: Q04DX003 (ip), vehicle: saline
[20] = dose: 200.0 mg/kg/injection, schedule: Q04DX003 (ip), vehicle: saline
[21] = dose: 400.0 mg/kg/injection, schedule: Q04DX003 (ip), vehicle: saline
[22] = dose: 100.0 mg/kg/injection, schedule: Q01DX009 (ip), vehicle: saline
[23] = dose: 50.0 mg/kg/injection, schedule: Q01DX001 (ip), vehicle: saline
[24] = dose: 100.0 mg/kg/injection, schedule: Q01DX001 (ip), vehicle: saline
[25] = dose: 100.0 mg/kg/injection, schedule: Q04DX002 (ip), vehicle: Klucel (hydroxypropylcellulose) (HPC)
[26] = dose: 200.0 mg/kg/injection, schedule: Q04DX002 (ip), vehicle: Klucel (hydroxypropylcellulose) (HPC)
[27] = dose: 400.0 mg/kg/injection, schedule: Q04DX002 (ip), vehicle: Klucel (hydroxypropylcellulose) (HPC)

## O=C(/C=C/c1ccccc1)NC(=S)Nc1ccc(O)cc1
[1]
  T/C: 96 % of control
[2]
  T/C: 95 % of control and 107 % of control
[3]
  T/C: 111 % of control and 88 % of control
[4]
  T/C: 98 % of control
[5]
  T/C: 96 % of control and 92 % of control
[6]
  T/C: 95 % of control and 111 % of control
[7]
  T/C: 96 % of control
[8]
  T/C: 101 % of control
[9]
  T/C: 95 % of control

## CCOC(=O)CN(CC)CC(=O)OCC
dose: 75.0 mg/kg/injection, schedule: Q01DX009 (ip), vehicle: saline with Tween-80
  T/C: 107 % of control
[10]
  T/C: 93 % of control
dose: 150.0 mg/kg/injection, schedule: Q01DX009 (ip), vehicle: saline with Tween-80
  T/C: 107 % of control
[11]
  T/C: 98 % of control
dose: 300.0 mg/kg/injection, schedule: Q01DX009 (ip), vehicle: saline with Tween-80
  T/C: 109 % of control
dose: 400.0 mg/kg/injection, schedule: Q04DX003 (ip), vehicle: saline with Tween-80
  T/C: 101 % of control

## COC1=C(Cl)C(=O)C(OC)=C(Cl)C1=O
dose: 5.0 mg/kg/injection, schedule: Q01DX001 (ip), vehicle: saline
  T/C: 97 % of control
dose: 10.0 mg/kg/injection, schedule: Q01DX001 (ip), vehicle: saline
  T/C: 95 % of control
dose: 20.0 mg/kg/injection, schedule: Q01DX001 (ip), vehicle: saline
  T/C: 106 % of control
dose: 40.0 mg/kg/injection, schedule: Q01DX001 (ip), vehicle: saline
  T/C: 101 % of control

## COc1ccc(-n2c(=O)c(N=Nc3ccccc3C)c(O)n(-c3ccc(Br)cc3)c2=S)cc1
dose: 37.5 mg/kg/injection, schedule: Q01DX001 (ip), vehicle: Klucel (hydroxypropylcellulose) (HPC)
  T/C: 94 % of control
dose: 75.0 mg/kg/injection, schedule: Q01DX001 (ip), vehicle: Klucel (hydroxypropylcellulose) (HPC)
  T/C: 92 % of control
dose: 150.0 mg/kg/injection, schedule: Q01DX001 (ip), vehicle: Klucel (hydroxypropylcellulose) (HPC)
  T/C: 105 % of control

## COc1cc(N(CCCl)CCCl)c(OC)cc1C=Nc1cccc(Br)c1
dose: 26.6 mg/kg/injection, schedule: Q01DX009 (ip), vehicle: carboxymethylcellulose (CMC)
  T/C: 105 % of control
dose: 40.0 mg/kg/injection, schedule: Q01DX009 (ip), vehicle: carboxymethylcellulose (CMC)
  T/C: 96 % of control
[12]
  T/C: 120 % of control
[13]
  T/C: 107 % of control
dose: 266.0 mg/kg/injection, schedule: Q01DX001 (ip), vehicle: carboxymethylcellulose (CMC)
  T/C: 157 % of control

## COCN(C(=O)CCl)c1c(C)cccc1C(C)(C)C
[2]
  T/C: 95 % of control
[5]
  T/C: 97 % of control
[8]
  T/C: 93 % of control

## Cc1ccc(S(=O)(=O)Nc2c(C)cc([N+](=O)[O-])cc2C)cc1
[14]
  T/C: 119 % of control
[12]
  T/C: 96 % of control
[13]
  T/C: 102 % of control
[15]
  T/C: 100 % of control

## COc1cccc(/C(=C/c2ccc([N+](=O)[O-])cc2)C(=O)Nc2ccc(S(=O)(=O)F)cc2)c1
[16]
  T/C: 101 % of control
[17]
  T/C: 90 % of control
[18]
  T/C: 90 % of control

## CC1(C)N=C(N)N=C(N)N1c1ccc(OCCOc2ccc(S(=O)(=O)F)cc2)cc1
dose: 100.0 mg/kg/injection, schedule: Q01DX001 (ip), vehicle: gum acacia
  T/C: 101 % of control
dose: 200.0 mg/kg/injection, schedule: Q01DX001 (ip), vehicle: gum acacia
  T/C: 98 % of control
dose: 400.0 mg/kg/injection, schedule: Q01DX001 (ip), vehicle: gum acacia
  T/C: 103 % of control

## Br/C=C/C1=CCCCC1
dose: 100.0 mg/kg/injection, schedule: Q01DX009 (ip), vehicle: acetone
  T/C: 98 % of control
[19]
  T/C: 97 % of control
dose: 200.0 mg/kg/injection, schedule: Q01DX009 (ip), vehicle: acetone
  T/C: 90 % of control
[20]
  T/C: 92 % of control
[21]
  T/C: 114 % of control

## Cc1ccc(Cl)c(C2c3ccccc3Cc3ccc4ccccc4c32)c1 (stereo not drawn)
[14]
  T/C: 101 % of control
[12]
  T/C: 101 % of control
[13]
  T/C: 95 % of control
[15]
  T/C: 98 % of control

## CC(=O)OCC(=O)[C@@]1(O)CC[C@H]2[C@@H]3C[C@H](C)C4=CC(=O)C=C[C@]4(C)[C@@]3(F)[C@@H](O)C[C@@]21C
[22]
  T/C: 103 % of control
[19]
  T/C: 94 % of control
dose: 200.0 mg/kg/injection, schedule: Q01DX009 (ip), vehicle: saline
  T/C: 92 % of control
[20]
  T/C: 111 % of control
dose: 400.0 mg/kg/injection, schedule: Q01DX009 (ip), vehicle: saline
  T/C: 108 % of control
[21]
  T/C: 103 % of control

## O=C(CCCC(=O)NNC(=S)Nc1cccc2ccccc12)NNC(=S)Nc1cccc2ccccc12
[23]
  T/C: 98 % of control
[24]
  T/C: 93 % of control
dose: 200.0 mg/kg/injection, schedule: Q01DX001 (ip), vehicle: saline
  T/C: 96 % of control
dose: 400.0 mg/kg/injection, schedule: Q01DX001 (ip), vehicle: saline
  T/C: 96 % of control

## O=C(O)c1cscc1Cc1cccs1
[1]
  T/C: 96 % of control
[4]
  T/C: 96 % of control
[7]
  T/C: 103 % of control

## Cc1ccc(S(=O)NOCCCCONS(=O)c2ccc(C)cc2)cc1 (stereo not drawn)
[1]
  T/C: 98 % of control
[2]
  T/C: 100 % of control and 89 % of control
[3]
  T/C: 96 % of control and 91 % of control
[4]
  T/C: 95 % of control
[5]
  T/C: 86 % of control and 87 % of control
[6]
  T/C: 93 % of control and 98 % of control
[7]
  T/C: 106 % of control
[8]
  T/C: 90 % of control
[9]
  T/C: 104 % of control and 105 % of control

## CC1=Nc2ccccc2NC(C)C1C (stereo not drawn)
dose: 12.5 mg/kg/injection, schedule: Q01DX009 (ip), vehicle: Klucel (hydroxypropylcellulose) (HPC)
  T/C: 100 % of control
dose: 25.0 mg/kg/injection, schedule: Q01DX009 (ip), vehicle: Klucel (hydroxypropylcellulose) (HPC)
  T/C: 96 % of control
dose: 50.0 mg/kg/injection, schedule: Q01DX009 (ip), vehicle: Klucel (hydroxypropylcellulose) (HPC)
  T/C: 108 % of control
[22]
  T/C: 91 % of control

## NC(=S)c1ccc2ccc3cccnc3c2n1
dose: 50.0 mg/kg/injection, schedule: Q04DX003 (ip), vehicle: saline with Tween-80
  T/C: 95 % of control
[10]
  T/C: 104 % of control
[11]
  T/C: 106 % of control

## C=CC1(O)CCOCC1
dose: 25.0 mg/kg/injection, schedule: Q01DX001 (ip), vehicle: saline
  T/C: 97 % of control
[23]
  T/C: 97 % of control
[24]
  T/C: 97 % of control

## CN(CCO)Cc1ccc2ccccc2c1
dose: 150.0 mg/kg/injection, schedule: Q01DX015 (ip), vehicle: saline
  T/C: 92 % of control

## Cn1c(=O)c2[nH]c(CS(=O)(=O)Cc3nc4c([nH]3)c(=O)n(C)c(=O)n4C)nc2n(C)c1=O
dose: 50.0 mg/kg/injection, schedule: Q01DX001 (ip), vehicle: other
  T/C: 90 % of control
dose: 100.0 mg/kg/injection, schedule: Q01DX001 (ip), vehicle: other
  T/C: 101 % of control
dose: 200.0 mg/kg/injection, schedule: Q01DX001 (ip), vehicle: other
  T/C: 95 % of control
dose: 400.0 mg/kg/injection, schedule: Q01DX001 (ip), vehicle: other
  T/C: 92 % of control

## COC(=O)C1C2C=CC(C3C=CC32)C1C(=O)OC (stereo not drawn)
[25]
  T/C: 103 % of control
[26]
  T/C: 97 % of control
[27]
  T/C: 103 % of control

## CCOC(=O)CC(=O)c1ccccc1F
[16]
  T/C: 97 % of control
dose: 100.0 mg/kg/injection, schedule: Q04DX003 (ip), vehicle: Klucel (hydroxypropylcellulose) (HPC)
  T/C: 102 % of control
[17]
  T/C: 103 % of control
dose: 200.0 mg/kg/injection, schedule: Q04DX003 (ip), vehicle: Klucel (hydroxypropylcellulose) (HPC)
  T/C: 103 % of control
[18]
  T/C: 93 % of control
dose: 400.0 mg/kg/injection, schedule: Q04DX003 (ip), vehicle: Klucel (hydroxypropylcellulose) (HPC)
  T/C: 100 % of control

## NC(CSS(=O)(=O)O)=NCCN1CCNC1=O
[25]
  T/C: 100 % of control
[26]
  T/C: 100 % of control
[27]
  T/C: 97 % of control
